Legend:
insulin receptor = insulin receptor (Homo sapiens, UniProt P06213); conditions: cited from earlier work
ERK1 and ERK2 = conditions: read-out: IC50, aFGF-induced tyrosine phosphorylation of ERK1 and ERK2; cited from earlier work
[1] = biological target: fibroblast growth factor receptor 1 (FGFR1) (Homo sapiens, UniProt P11362); conditions: read-out: IC50, tyrosine kinase activity of FGFR1; in the presence of 1 mM ATP; cited from earlier work
EGF receptor = EGF receptor (Homo sapiens, UniProt P00533); conditions: cited from earlier work
PDGF receptor = conditions: cited from earlier work
CD15+ cells = test: Differentiation of CD15+ sorted cells treated with VEGF or PDGF; type: cell-based, primate; conditions: 10 or 50 ng/ml
Method: FIGS. 11A, 11B and 11C: CD15+ cells express cardiac, endothelial and vascular proteins markers; CD15+ sorted cells were cultured for 5 days on MEF and immunostained with the indicated markers; some cells were treated with VEGF or PDGF and immunostained with anti smooth muscle actin and myosin or CD31. Some others were cultured with human fibroblast isolated from the myocardium and stained with an anti-actinin antibody.
When cultured on human cardiac fibroblasts, CD15+ cells differentiate into actinin-positive cardiomyocytes.

insulin receptor, sequence (P06213 28-1382, species assumed): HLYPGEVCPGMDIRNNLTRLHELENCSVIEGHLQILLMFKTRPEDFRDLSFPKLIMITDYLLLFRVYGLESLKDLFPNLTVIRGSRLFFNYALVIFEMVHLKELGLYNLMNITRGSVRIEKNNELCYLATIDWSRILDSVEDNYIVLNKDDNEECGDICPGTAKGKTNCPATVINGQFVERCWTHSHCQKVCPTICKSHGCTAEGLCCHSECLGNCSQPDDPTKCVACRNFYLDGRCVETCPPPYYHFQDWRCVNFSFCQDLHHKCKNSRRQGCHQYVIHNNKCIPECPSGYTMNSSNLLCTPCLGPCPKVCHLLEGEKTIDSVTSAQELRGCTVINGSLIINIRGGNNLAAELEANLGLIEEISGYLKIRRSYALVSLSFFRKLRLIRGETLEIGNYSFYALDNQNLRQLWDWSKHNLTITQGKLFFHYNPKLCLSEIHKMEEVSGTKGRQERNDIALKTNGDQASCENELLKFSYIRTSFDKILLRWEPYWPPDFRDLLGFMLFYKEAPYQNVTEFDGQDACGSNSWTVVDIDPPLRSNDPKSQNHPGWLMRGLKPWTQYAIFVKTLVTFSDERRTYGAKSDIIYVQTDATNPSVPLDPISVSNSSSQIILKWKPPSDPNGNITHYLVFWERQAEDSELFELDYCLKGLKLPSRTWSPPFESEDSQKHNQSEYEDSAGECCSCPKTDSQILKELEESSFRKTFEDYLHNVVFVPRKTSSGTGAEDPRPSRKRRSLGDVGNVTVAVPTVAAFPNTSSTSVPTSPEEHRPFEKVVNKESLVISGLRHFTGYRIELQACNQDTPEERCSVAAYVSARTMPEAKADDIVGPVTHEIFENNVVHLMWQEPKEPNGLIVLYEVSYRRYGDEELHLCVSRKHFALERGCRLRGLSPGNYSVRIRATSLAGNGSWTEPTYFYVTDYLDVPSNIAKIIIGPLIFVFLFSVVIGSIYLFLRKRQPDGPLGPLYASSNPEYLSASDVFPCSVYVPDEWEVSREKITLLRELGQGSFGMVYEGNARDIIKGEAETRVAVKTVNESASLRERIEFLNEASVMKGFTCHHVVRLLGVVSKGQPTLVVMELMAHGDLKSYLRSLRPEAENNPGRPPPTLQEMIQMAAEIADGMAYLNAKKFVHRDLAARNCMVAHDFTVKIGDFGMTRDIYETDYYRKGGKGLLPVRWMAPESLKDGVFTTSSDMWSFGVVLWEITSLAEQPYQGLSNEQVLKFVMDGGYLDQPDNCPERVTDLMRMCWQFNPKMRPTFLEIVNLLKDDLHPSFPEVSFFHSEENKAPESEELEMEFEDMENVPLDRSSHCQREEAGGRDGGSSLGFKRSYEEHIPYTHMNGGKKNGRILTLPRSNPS
EGF receptor, sequence (P00533 25-1210): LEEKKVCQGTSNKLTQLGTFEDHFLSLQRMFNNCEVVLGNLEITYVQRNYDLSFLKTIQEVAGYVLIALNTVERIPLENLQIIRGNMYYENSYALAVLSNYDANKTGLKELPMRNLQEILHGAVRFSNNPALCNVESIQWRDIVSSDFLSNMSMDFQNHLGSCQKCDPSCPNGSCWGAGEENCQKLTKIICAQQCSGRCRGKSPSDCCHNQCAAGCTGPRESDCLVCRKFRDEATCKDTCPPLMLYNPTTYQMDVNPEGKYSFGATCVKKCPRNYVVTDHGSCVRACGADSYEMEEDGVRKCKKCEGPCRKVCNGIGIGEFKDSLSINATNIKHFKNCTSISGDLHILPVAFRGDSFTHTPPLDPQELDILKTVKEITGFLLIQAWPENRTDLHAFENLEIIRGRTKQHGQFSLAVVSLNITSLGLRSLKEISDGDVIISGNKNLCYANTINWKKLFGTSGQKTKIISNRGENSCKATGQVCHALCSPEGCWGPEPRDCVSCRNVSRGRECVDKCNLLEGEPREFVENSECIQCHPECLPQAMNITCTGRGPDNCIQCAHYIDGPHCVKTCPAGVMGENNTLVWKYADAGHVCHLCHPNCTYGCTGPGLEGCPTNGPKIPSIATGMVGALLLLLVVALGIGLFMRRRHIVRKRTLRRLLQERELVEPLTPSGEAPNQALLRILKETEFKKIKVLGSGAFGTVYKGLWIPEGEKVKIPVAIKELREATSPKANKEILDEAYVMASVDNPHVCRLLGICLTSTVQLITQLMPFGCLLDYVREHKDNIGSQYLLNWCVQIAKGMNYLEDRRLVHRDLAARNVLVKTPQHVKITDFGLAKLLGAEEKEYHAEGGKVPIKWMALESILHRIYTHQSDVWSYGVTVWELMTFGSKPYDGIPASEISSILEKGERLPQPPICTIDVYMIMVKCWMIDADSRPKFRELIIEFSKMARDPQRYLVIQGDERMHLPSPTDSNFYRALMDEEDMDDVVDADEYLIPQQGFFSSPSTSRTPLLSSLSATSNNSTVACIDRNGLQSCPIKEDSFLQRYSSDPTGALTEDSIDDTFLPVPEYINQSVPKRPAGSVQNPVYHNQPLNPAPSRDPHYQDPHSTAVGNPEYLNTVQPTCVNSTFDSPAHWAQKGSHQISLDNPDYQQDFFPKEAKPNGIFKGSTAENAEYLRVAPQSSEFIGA
fibroblast growth factor receptor 1 (FGFR1), sequence (P11362 22-822, species assumed): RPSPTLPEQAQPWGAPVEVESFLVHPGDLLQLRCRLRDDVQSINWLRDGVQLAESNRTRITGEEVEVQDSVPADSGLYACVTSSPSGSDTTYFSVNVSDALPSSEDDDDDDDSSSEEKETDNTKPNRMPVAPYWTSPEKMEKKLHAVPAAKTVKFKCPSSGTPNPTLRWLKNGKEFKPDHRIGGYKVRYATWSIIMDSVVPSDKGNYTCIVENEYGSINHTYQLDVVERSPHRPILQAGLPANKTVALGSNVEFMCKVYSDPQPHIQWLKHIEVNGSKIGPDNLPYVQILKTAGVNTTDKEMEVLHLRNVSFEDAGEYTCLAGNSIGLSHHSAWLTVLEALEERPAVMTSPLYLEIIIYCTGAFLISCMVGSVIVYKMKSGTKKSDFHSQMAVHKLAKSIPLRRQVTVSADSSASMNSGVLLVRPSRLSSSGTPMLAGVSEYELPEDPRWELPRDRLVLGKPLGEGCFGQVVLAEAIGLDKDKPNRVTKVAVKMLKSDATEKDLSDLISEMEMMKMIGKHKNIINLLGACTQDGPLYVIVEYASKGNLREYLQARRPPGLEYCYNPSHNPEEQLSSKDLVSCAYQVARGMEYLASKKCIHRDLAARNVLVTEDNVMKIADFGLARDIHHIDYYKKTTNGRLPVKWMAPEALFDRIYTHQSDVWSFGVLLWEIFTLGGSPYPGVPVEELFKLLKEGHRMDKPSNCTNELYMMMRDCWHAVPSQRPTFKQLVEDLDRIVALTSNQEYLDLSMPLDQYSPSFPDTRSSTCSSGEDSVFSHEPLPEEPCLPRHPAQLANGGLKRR
Method for HUES-1 cells: HES cells were treated for 48 hrs with 10 ng/ml BMP2 in the presence or absence of 1 μM SU5402, a FGF receptor inhibitor, in low KO™SR (5%) containing KO™-DMEM.
Gene induction was tested using real time Q-PCR.

Compound: Cc1c[nH]c(C=C2C(=O)Nc3ccccc32)c1CCC(=O)O [SU5402, 3-[3-(2-Carboxyethyl)-4-methylpyrrol-2-methylidenyl]-2-indolinone]
- inhibition of phosphorylation of the insulin receptor (insulin receptor): does not inhibit
- IC50 (ERK1 and ERK2): 10 to 20 µM
- IC50 [1]: 10 to 20 µM
- inhibition of the kinase activity of the EGF receptor (EGF receptor): does not inhibit
- inhibition of tyrosine phosphorylation of the PDGF receptor (PDGF receptor): only a weak inhibitor
- enhancement of BMP2 induction of mesodermal and cardiac genes (HUES-1 cells; 48 hrs, 10 ng/ml BMP2 with 1 μM SU5402 versus BMP2 alone): 3-10 folds
- enhancement of BMP2 instructive action (HUES-1 cells; defined (KOSR) medium, SU5402 added to BMP2): dramatically enhanced

Compound: PDGF
- fate of CD15+ cells (CD15+ cells): smooth muscle cells

Compound: VEGF
- fate of CD15+ cells (CD15+ cells): endothelial
